Reference: PubChem BioAssay AID248 (DTP/NCI, 2004)
Toxic doses and inconclusive results are not listed. No stated cut-off is given here; in the data, active means T/C of 150% or more; inactive means T/C below 125%.

Tested on: L1210 leukemia ip in BDF1 mice, survival T/C
Assay: NCI In Vivo Anticancer Drug Screen. Data for tumor model L1210 Leukemia (intraperitoneal) in B6D2F1 (BDF1) mice
Conditions: endpoint: mean survival time, higher = longer survival
Procedure, shortened: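 Transplantable tumor model; survival measured in treated vs vehicle control mice. Value = treated/control.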

[1] = dose: 100.0 mg/kg/injection, schedule: Q01DX001 (ip), vehicle: carboxymethylcellulose (CMC)
[2] = dose: 200.0 mg/kg/injection, schedule: Q01DX001 (ip), vehicle: carboxymethylcellulose (CMC)
[3] = dose: 400.0 mg/kg/injection, schedule: Q01DX001 (ip), vehicle: carboxymethylcellulose (CMC)
[4] = dose: 50.0 mg/kg/injection, schedule: Q01DX001 (ip), vehicle: saline
[5] = dose: 100.0 mg/kg/injection, schedule: Q01DX001 (ip), vehicle: saline
[6] = dose: 100.0 mg/kg/injection, schedule: Q01DX009 (ip), vehicle: Klucel (hydroxypropylcellulose) (HPC)
[7] = dose: 200.0 mg/kg/injection, schedule: Q01DX001 (ip), vehicle: saline
[8] = dose: 200.0 mg/kg/injection, schedule: Q01DX009 (ip), vehicle: Klucel (hydroxypropylcellulose) (HPC)
[9] = dose: 400.0 mg/kg/injection, schedule: Q01DX009 (ip), vehicle: Klucel (hydroxypropylcellulose) (HPC)
[10] = dose: 25.0 mg/kg/injection, schedule: Q01DX009 (ip), vehicle: Klucel (hydroxypropylcellulose) (HPC)
[11] = dose: 50.0 mg/kg/injection, schedule: Q01DX009 (ip), vehicle: Klucel (hydroxypropylcellulose) (HPC)
[12] = dose: 400.0 mg/kg/injection, schedule: Q01DX001 (ip), vehicle: saline
[13] = dose: 100.0 mg/kg/injection, schedule: Q01DX009 (ip), vehicle: saline
[14] = dose: 50.0 mg/kg/injection, schedule: Q04DX003 (ip), vehicle: Klucel (hydroxypropylcellulose) (HPC)
[15] = dose: 100.0 mg/kg/injection, schedule: Q04DX003 (ip), vehicle: Klucel (hydroxypropylcellulose) (HPC)
[16] = dose: 200.0 mg/kg/injection, schedule: Q01DX009 (ip), vehicle: saline
[17] = dose: 400.0 mg/kg/injection, schedule: Q01DX009 (ip), vehicle: saline
[18] = dose: 100.0 mg/kg/injection, schedule: Q04DX003 (ip), vehicle: saline
[19] = dose: 200.0 mg/kg/injection, schedule: Q04DX003 (ip), vehicle: saline
[20] = dose: 400.0 mg/kg/injection, schedule: Q04DX003 (ip), vehicle: saline

Measured: T/C

Cn1c(=O)[nH]c(=O)c2c1[nH]c(=O)c(=O)n2C
inactive: dose: 50.0 mg/kg/injection, schedule: Q01DX001 (ip), vehicle: carboxymethylcellulose (CMC) 101 % of control | [1] 98 % of control | [2] 95 % of control | [3] 106 % of control

O=c1[nH]c2ncccc2c(=O)n1O
inactive: [4] 96 % of control | [5] 100 % of control | [6] 96 % of control | [7] 96 % of control | [8] 98 % of control | [9] 94 % of control

O=C1NCC2(CCCCCC2)O1
inactive: [5] 104 % of control | [7] 108 % of control

Nc1nc(N)c(CCCOc2ccc(C(=O)O)cc2)c(N)n1
inactive: dose: 12.5 mg/kg/injection, schedule: Q01DX009 (ip), vehicle: Klucel (hydroxypropylcellulose) (HPC) 95 % of control | [10] 100 % of control | [11] 93 % of control

COc1cc(C(=O)NC2CC(C)CC(C)(C)C2)cc(OC)c1OC (stereo not drawn)
inactive: [6] 91 % of control | dose: 100.0 mg/kg/injection, schedule: Q04DX002 (ip), vehicle: Klucel (hydroxypropylcellulose) (HPC) 92 % of control | [8] 91 % of control | dose: 200.0 mg/kg/injection, schedule: Q04DX002 (ip), vehicle: Klucel (hydroxypropylcellulose) (HPC) 98 % of control | [9] 91 % of control | dose: 400.0 mg/kg/injection, schedule: Q04DX002 (ip), vehicle: Klucel (hydroxypropylcellulose) (HPC) 103 % of control

NC(CCc1c[nH]c(=O)[nH]c1=O)C(=O)O (stereo not drawn)
inactive: [4] 104 % of control | [5] 100 % of control | [7] 98 % of control | [12] 110 % of control

CSc1cccc(C(=O)O)c1
inactive: dose: 100.0 mg/kg/injection, schedule: Q01DX001 (ip), vehicle: Klucel (hydroxypropylcellulose) (HPC) 102 % of control | dose: 200.0 mg/kg/injection, schedule: Q01DX001 (ip), vehicle: Klucel (hydroxypropylcellulose) (HPC) 102 % of control | dose: 400.0 mg/kg/injection, schedule: Q01DX001 (ip), vehicle: Klucel (hydroxypropylcellulose) (HPC) 94 % of control

COc1ccc(C)cc1NC(=O)Nc1ccccc1C(F)(F)F
inactive: [6] 89 % of control | [8] 91 % of control | [9] 100 % of control

CC(C)c1cc(C(C)C)c(S(=O)(=O)C2CC2c2ccccc2)c(C(C)C)c1 (stereo not drawn)
inactive: [5] 112 % of control | [7] 93 % of control | [12] 91 % of control

CCC(C)C(CCN(C)CC)(CNC(=O)CN(CC)CC)c1cccc2ccccc12 (stereo not drawn)
inactive: dose: 50.0 mg/kg/injection, schedule: Q04DX002 (ip), vehicle: saline 106 % of control | [13] 96 % of control | dose: 100.0 mg/kg/injection, schedule: Q04DX002 (ip), vehicle: saline 97 % of control

C=Cc1cc[n+](Cc2ccc(C[n+]3ccc(C=C)cc3)cc2)cc1
inactive: [1] 91 % of control | [2] 91 % of control | [3] 87 % of control

CCOc1ccc(NC(C)=O)cc1Br
inactive: dose: 100.0 mg/kg/injection, schedule: Q01DX001 (ip), vehicle: other 103 % of control | dose: 200.0 mg/kg/injection, schedule: Q01DX001 (ip), vehicle: other 103 % of control | dose: 400.0 mg/kg/injection, schedule: Q01DX001 (ip), vehicle: other 111 % of control

C/C(=N\N=C(N)N)c1ccc(N2CCN(c3ccc(/C(C)=N/N=C(N)N)cc3)CC2)cc1
inactive: [1] 94 % of control | [2] 97 % of control | [3] 100 % of control

C1CCN(/N=N/c2nn[nH]n2)CC1
inactive: dose: 100.0 mg/kg/injection, schedule: Q04DX003 (ip), vehicle: saline with Tween-80 94 % of control | dose: 200.0 mg/kg/injection, schedule: Q04DX003 (ip), vehicle: saline with Tween-80 91 % of control | dose: 400.0 mg/kg/injection, schedule: Q04DX003 (ip), vehicle: saline with Tween-80 94 % of control

CCOC(=O)NC1CC1
inactive: [5] 93 % of control | [7] 95 % of control | [12] 101 % of control

COC(=O)C1(C)CCC2(C)CCC3(C)C4=CC=C5C(=CC(=O)C(O)=C5C)C4(C)CCC3(C)C2C1 (stereo not drawn)
inactive: dose: 37.5 mg/kg/injection, schedule: Q01DX001 (sc), vehicle: steriod suspending solution 104 % of control | dose: 75.0 mg/kg/injection, schedule: Q01DX001 (sc), vehicle: steriod suspending solution 98 % of control | dose: 150.0 mg/kg/injection, schedule: Q01DX001 (sc), vehicle: steriod suspending solution 98 % of control | dose: 300.0 mg/kg/injection, schedule: Q01DX001 (sc), vehicle: steriod suspending solution 95 % of control

CCCCCCCCC(=O)N1CC1
inactive: [11] 94 % of control | [14] 105 % of control | [6] 94 % of control | [15] 96 % of control | [8] 96 % of control | dose: 200.0 mg/kg/injection, schedule: Q04DX003 (ip), vehicle: Klucel (hydroxypropylcellulose) (HPC) 98 % of control

CC(=O)CC(O)(C(F)(F)F)C(F)(F)F
inactive: [13] 105 % of control | [16] 101 % of control | [17] 93 % of control

ClCCCNCc1ccc(-c2c3ccccc3cc3c2ccc2ccccc23)cc1
inactive: [1] 95 % of control | [2] 101 % of control

CN1C(C)(C)CC(O)(C(O)(c2ccccc2)c2ccccc2)CC1(C)C
inactive: dose: 100.0 mg/kg/injection, schedule: Q04DX003 (ip), vehicle: acetone 98 % of control

CCOC(=O)C(C(=O)OCC)c1c[n+]([O-])c2ccccc2c1[N+](=O)[O-]
inactive: [1] 93 % of control | [2] 98 % of control | [3] 98 % of control

COc1ccc(CCNC(=S)NC(=O)c2ccccc2)cc1OC
inactive: dose: 100.0 mg/kg/injection, schedule: Q01DX009 (sc), vehicle: olive oil, sesame oil, peanut oil 98 % of control | dose: 100.0 mg/kg/injection, schedule: Q04DX003 (sc), vehicle: olive oil, sesame oil, peanut oil 100 % of control | dose: 200.0 mg/kg/injection, schedule: Q01DX009 (sc), vehicle: olive oil, sesame oil, peanut oil 104 % of control | dose: 200.0 mg/kg/injection, schedule: Q04DX003 (sc), vehicle: olive oil, sesame oil, peanut oil 98 % of control | dose: 400.0 mg/kg/injection, schedule: Q01DX009 (sc), vehicle: olive oil, sesame oil, peanut oil 98 % of control | dose: 400.0 mg/kg/injection, schedule: Q04DX003 (sc), vehicle: olive oil, sesame oil, peanut oil 103 % of control

NC(CSCCc1ccccn1)C(=O)O (stereo not drawn)
inactive: [13] 107 % of control | [18] 101 % of control | [16] 104 % of control | [19] 104 % of control | [17] 105 % of control | [20] 94 % of control

Cc1ccc(N)cn1
inactive: [10] 97 % of control | dose: 25.0 mg/kg/injection, schedule: Q04DX003 (ip), vehicle: Klucel (hydroxypropylcellulose) (HPC) 102 % of control | [11] 100 % of control | [14] 101 % of control | [6] 90 % of control | [15] 98 % of control

C=CCNC(=O)CS(=O)(=O)NCC=C
inactive: dose: 100.0 mg/kg/injection, schedule: Q04DX003 (ip), vehicle: carboxymethylcellulose (CMC) 95 % of control | dose: 200.0 mg/kg/injection, schedule: Q04DX003 (ip), vehicle: carboxymethylcellulose (CMC) 96 % of control | dose: 400.0 mg/kg/injection, schedule: Q04DX003 (ip), vehicle: carboxymethylcellulose (CMC) 117 % of control

C#CC(OC(=O)c1cc([N+](=O)[O-])cc([N+](=O)[O-])c1)C1OC(C)(C)OC1C1COC(C)(C)O1 (stereo not drawn)
inactive: [1] 106 % of control | [2] 106 % of control | [3] 106 % of control

Cc1nnc(NS(=O)(=O)c2ccc(N=Nc3ccc(O)c4ncccc34)cc2)s1
inactive: [5] 105 % of control | [7] 102 % of control | [12] 96 % of control

CC(C)CC(C)OC(=O)CCl (stereo not drawn)
inactive: [18] 107 % of control | [19] 105 % of control | [20] 88 % of control

c1ccc2nc(OCCN3CC3)ccc2c1
inactive: [1] 108 % of control

CC1OC(=O)C(C2OC2C)=CC1O (stereo not drawn)
inactive: dose: 12.5 mg/kg/injection, schedule: Q01DX009 (ip), vehicle: saline 97 % of control | dose: 12.5 mg/kg/injection, schedule: Q04DX003 (ip), vehicle: saline 101 % of control | dose: 25.0 mg/kg/injection, schedule: Q01DX009 (ip), vehicle: saline 108 % of control | dose: 25.0 mg/kg/injection, schedule: Q04DX003 (ip), vehicle: saline 108 % of control | [4] 114 % of control | dose: 50.0 mg/kg/injection, schedule: Q04DX003 (ip), vehicle: saline 92 % of control
